Measurements published in US20200024278A1, “COMPOSITION COMPRISING ANTIBIOTIC COMPOUND AND AN HETEROCYCLIC COMPOUND AND THEIR USE IN PREVENTING OR TREATING BACTERIAL INFECTIONS” (MUTABILIS, priority 2016, published 2020).

Experiments:
Assay in all cases: MIC, broth microdilution (CLSI), substance alone or ATB combined with compound at 4 or 8 μg/mL
Assay type in all cases: cell-based, A. baumannii
ABA UFR159 = system: ABA UFR159
Experimental: (§1) Compounds of the present invention were assessed against genotyped bacterial strains alone or in combination with an antibacterial. In the assays, MICs of said compounds or combination of antibiotics with fixed concentrations of said compounds (4 or 8 μg/mL) were determined by the broth microdilution method according to the Clinical Laboratory Standards Institute (CLSI-M7-A7). Briefly, compounds alone according to the invention were prepared in DMSO and spotted (2 μL each) on sterile polystyrene plates (Corning, 3788). Combinations of compounds and antibiotics dilutions were prepared in DMSO and spotted (1 μL each) on sterile polystyrene plates (Corning, 3788). Log phase bacterial suspensions were adjusted to a final density of 5·10^5 CFU/mL in cation-adjusted Mueller-Hinton broth (ca-MHB; Becton-Dickinson and Company) and added to each well (98 μL). Assays including Fosfomycin were supplemented with 25 μg/ml of Glucose-6-phosphate. Microplates were incubated for 16-20 h at 35° C. in ambient air. The MIC of the compounds was defined as the lowest concentration of said compounds that prevented bacterial growth as read by visual inspection. The MIC of ATB at each compound concentration was defined as the lowest concentration of ATB that prevented bacterial growth as read by visual inspection.

ABA UFR153 = system: ABA UFR153
Experimental: as §1

ABA UFR151 = system: ABA UFR151
Experimental: as §1

ABA UFR154 = system: ABA UFR154
Experimental: as §1

ABA UFR155 = system: ABA UFR155
Experimental: as §1

ABA UFR152 = system: ABA UFR152
Experimental: as §1

ABA 19606 = system: ABA 19606
Experimental: as §1

MIC ATB combined with Example 9 @4 μg/ml (ABA UFR159; with Example 9 @4 μg/ml): 128 µg/mL | MIC ATB combined with Example 10 @8 μg/ml (ABA UFR159; with Example 10 @8 μg/ml): 128 µg/mL | MIC ATB combined with Example 11 @8 μg/ml (ABA UFR159; with Example 11 @8 μg/ml): 128 µg/mL | MIC ATB combined with Example 12 @8 μg/ml (ABA UFR159; with Example 12 @8 μg/ml): 128 µg/mL | MIC ATB combined with Example 15 @4 μg/ml (ABA UFR159; with Example 15 @4 μg/ml): 128 µg/mL | MIC ATB alone (ABA UFR153; antibiotic alone): 4 µg/mL | MIC ATB combined with Example 1 @8 μg/ml (ABA UFR153; with Example 1 @8 μg/ml): 1 µg/mL | MIC ATB combined with Example 3 @8 μg/ml (ABA UFR153; with Example 3 @8 μg/ml): <=0.25 μg/mL | MIC ATB combined with Example 6 @8 μg/ml (ABA UFR153; with Example 6 @8 μg/ml): <=0.25 μg/mL | MIC ATB combined with Example 9 @4 μg/ml (ABA UFR153; with Example 9 @4 μg/ml): 0.5 µg/mL | MIC ATB combined with Example 10 @8 μg/ml (ABA UFR153; with Example 10 @8 μg/ml): <=0.25 μg/mL | MIC ATB combined with Example 11 @8 μg/ml (ABA UFR153; with Example 11 @8 μg/ml): <=0.25 μg/mL | MIC ATB combined with Example 12 @8 μg/ml (ABA UFR153; with Example 12 @8 μg/ml): <=0.25 μg/mL | MIC ATB combined with Example 15 @4 μg/ml (ABA UFR153; with Example 15 @4 μg/ml): <=0.25 μg/mL | MIC ATB alone (ABA UFR151; antibiotic alone): 2 µg/mL | MIC ATB combined with Example 1 @8 μg/ml (ABA UFR151; with Example 1 @8 μg/ml): 0.5 µg/mL | MIC ATB combined with Example 3 @8 μg/ml (ABA UFR151; with Example 3 @8 μg/ml): <=0.25 μg/mL | MIC ATB combined with Example 6 @8 μg/ml (ABA UFR151; with Example 6 @8 μg/ml): <0.25 µg/mL | MIC ATB combined with Example 9 @4 μg/ml (ABA UFR151; with Example 9 @4 μg/ml): 0.5 µg/mL | MIC ATB combined with Example 10 @8 μg/ml (ABA UFR151; with Example 10 @8 μg/ml): <=0.25 μg/mL | MIC ATB combined with Example 11 @8 μg/ml (ABA UFR151; with Example 11 @8 μg/ml): <=0.25 μg/mL | MIC ATB combined with Example 12 @8 μg/ml (ABA UFR151; with Example 12 @8 μg/ml): <=0.25 μg/mL | MIC ATB combined with Example 15 @4 μg/ml (ABA UFR151; with Example 15 @4 μg/ml): <=0.25 μg/mL | MIC ATB alone (ABA UFR154; antibiotic alone): 8 µg/mL | MIC ATB combined with Example 1 @8 μg/ml (ABA UFR154; with Example 1 @8 μg/ml): 1 µg/mL | MIC ATB combined with Example 3 @8 μg/ml (ABA UFR154; with Example 3 @8 μg/ml): 0.5 µg/mL | MIC ATB combined with Example 6 @8 μg/ml (ABA UFR154; with Example 6 @8 μg/ml): <=0.25 μg/mL | MIC ATB combined with Example 9 @4 μg/ml (ABA UFR154; with Example 9 @4 μg/ml): 0.5 µg/mL | MIC ATB combined with Example 10 @8 μg/ml (ABA UFR154; with Example 10 @8 μg/ml): <=0.25 μg/mL | MIC ATB combined with Example 11 @8 μg/ml (ABA UFR154; with Example 11 @8 μg/ml): <=0.25 μg/mL | MIC ATB combined with Example 12 @8 μg/ml (ABA UFR154; with Example 12 @8 μg/ml): <=0.25 μg/mL | MIC ATB combined with Example 15 @4 μg/ml (ABA UFR154; with Example 15 @4 μg/ml): 0.5 µg/mL | MIC ATB alone (ABA UFR155; antibiotic alone): 16 µg/mL | MIC ATB combined with Example 1 @8 μg/ml (ABA UFR155; with Example 1 @8 μg/ml): 4 µg/mL | MIC ATB combined with Example 3 @8 μg/ml (ABA UFR155; with Example 3 @8 μg/ml): 1 µg/mL | MIC ATB combined with Example 6 @8 μg/ml (ABA UFR155; with Example 6 @8 μg/ml): 2 µg/mL | MIC ATB combined with Example 9 @4 μg/ml (ABA UFR155; with Example 9 @4 μg/ml): 8 µg/mL | MIC ATB combined with Example 10 @8 μg/ml (ABA UFR155; with Example 10 @8 μg/ml): 2 µg/mL | MIC ATB combined with Example 11 @8 μg/ml (ABA UFR155; with Example 11 @8 μg/ml): 4 µg/mL | MIC ATB combined with Example 12 @8 μg/ml (ABA UFR155; with Example 12 @8 μg/ml): 2 µg/mL | MIC ATB combined with Example 15 @4 μg/ml (ABA UFR155; with Example 15 @4 μg/ml): 8 µg/mL | MIC ATB alone (ABA UFR152; antibiotic alone): 4 µg/mL | MIC ATB combined with Example 1 @8 μg/ml (ABA UFR152; with Example 1 @8 μg/ml): 4 µg/mL | MIC ATB combined with Example 3 @8 μg/ml (ABA UFR152; with Example 3 @8 μg/ml): 1 µg/mL | MIC ATB combined with Example 6 @8 μg/ml (ABA UFR152; with Example 6 @8 μg/ml): 2 µg/mL | MIC ATB combined with Example 9 @4 μg/ml (ABA UFR152; with Example 9 @4 μg/ml): 2 µg/mL | MIC ATB combined with Example 10 @8 μg/ml (ABA UFR152; with Example 10 @8 μg/ml): 1 µg/mL | MIC ATB combined with Example 11 @8 μg/ml (ABA UFR152; with Example 11 @8 μg/ml): 1 µg/mL | MIC ATB combined with Example 12 @8 μg/ml (ABA UFR152; with Example 12 @8 μg/ml): 1 µg/mL | MIC ATB combined with Example 15 @4 μg/ml (ABA UFR152; with Example 15 @4 μg/ml): 2 µg/mL | MIC ATB alone (ABA 19606; antibiotic alone): 1 µg/mL | MIC ATB combined with Example 1 @8 μg/ml (ABA 19606; with Example 1 @8 μg/ml): 1 µg/mL | MIC ATB combined with Example 3 @8 μg/ml (ABA 19606; with Example 3 @8 μg/ml): <=0.25 μg/mL | MIC ATB combined with Example 6 @8 μg/ml (ABA 19606; with Example 6 @8 μg/ml): <=0.25 μg/mL | MIC ATB combined with Example 9 @4 μg/ml (ABA 19606; with Example 9 @4 μg/ml): <=0.25 μg/mL | MIC ATB combined with Example 10 @8 μg/ml (ABA 19606; with Example 10 @8 μg/ml): <=0.25 μg/mL | MIC ATB combined with Example 11 @8 μg/ml (ABA 19606; with Example 11 @8 μg/ml): <=0.25 μg/mL | MIC ATB combined with Example 12 @8 μg/ml (ABA 19606; with Example 12 @8 μg/ml): <=0.25 μg/mL | MIC ATB combined with Example 15 @4 μg/ml (ABA 19606; with Example 15 @4 μg/ml): <=0.25 μg/mL
SMILES: CC1(C)[C@H](C(=O)O)N2C(=O)C[C@H]2S1(=O)=O [SUL]
